# According to patent publication US20120220665A1, “Inhibiting Neurotransmitter Reuptake” (MAYO FOUNDATION FOR MEDICAL EDUCATION AND RESEARCH, priority 2009, published 2012):
# Tests used:
# [1] = molecular target: T1, human serotonin transporter (hSERT) (Homo sapiens, UniProt P31645); assay: Human transporter radioligand binding, hSERT ([3H]citalopram, HEK-293 membranes); conditions: HCl salts of test compounds; n ≥ 3, values marked b n = 1; read-out: Equilibrium Dissociation Constant (KD) for Transporter Binding (Geometric Mean; nM ± SEM) hSERT (S)
# T1 construct: expressed in transfected cells; host or cells: HEK-293, stably transfected; membranes
# T1 sequence (P31645 whole entry): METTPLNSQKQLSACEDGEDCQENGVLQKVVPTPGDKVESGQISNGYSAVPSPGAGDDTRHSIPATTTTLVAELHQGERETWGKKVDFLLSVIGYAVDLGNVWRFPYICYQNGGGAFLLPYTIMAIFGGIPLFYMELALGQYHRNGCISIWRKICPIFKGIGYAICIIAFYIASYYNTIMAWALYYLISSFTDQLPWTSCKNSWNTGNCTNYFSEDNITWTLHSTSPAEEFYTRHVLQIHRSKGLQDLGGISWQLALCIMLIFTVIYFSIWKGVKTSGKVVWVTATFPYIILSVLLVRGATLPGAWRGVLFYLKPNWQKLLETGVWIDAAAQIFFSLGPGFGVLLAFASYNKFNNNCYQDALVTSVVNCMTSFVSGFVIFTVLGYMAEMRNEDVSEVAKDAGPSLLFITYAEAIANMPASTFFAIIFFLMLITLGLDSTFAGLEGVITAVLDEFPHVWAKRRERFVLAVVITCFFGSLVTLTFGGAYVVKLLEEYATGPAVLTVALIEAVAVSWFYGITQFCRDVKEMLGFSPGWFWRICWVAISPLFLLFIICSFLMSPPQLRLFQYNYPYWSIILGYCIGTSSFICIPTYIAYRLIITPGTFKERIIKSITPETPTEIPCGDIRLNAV
# Experimental: (§1) HEK-293 cells expressing the recombinant hSERT or hDAT were incubated with Dulbecco's modified Eagles medium (MEM) supplemented with 0.1 mM nonessential amino acid solution for MEM, 5% v/v fetal bovine serum and […] penicillin/streptomycin solution. Cells expressing the hNET transporter were incubated with Dulbecco's modified Eagles medium supplemented with 10% v/v fetal bovine serum and 100 U/mL penicillin/streptomycin solution and 2 mM L-glutamine. All cells were grown until 70-80% confluent on 175 cm^2 flasks in a humidified 10% CO2/90% air environment at 37° C., with the selecting antibiotic Geneticin sulfate at […]. The cells were incubated in 10% CO2, 90% air at 37° C. and 100% humidity.
# (§2) Cell membranes containing hSERT, hNET, or hDAT were prepared from the cell lines to assay ligand binding for each of the transporters. […] The washed cells were incubated for 5 minutes at 37° C. in 10 mL solution 1 containing 100 mM ethylene glycol-bis N,N,N′,N′-tetraacetic acid (EGTA). The cells were then scraped from the flask surface with a rubber spatula, placed into a centrifuge tube, and collected by centrifugation at 1000×g for 5 minutes at 4° C. The resulting supernatant was discarded, and the cell pellet was resuspended in 0.5 to1.0 mL of the appropriate binding buffer (described below). The resuspended cell pellet was homogenized using a Polytron for 10 seconds at setting 6. The resulting homogenate was centrifuged at about 36,000×g for 10 minutes at 4° C. The supernatant was discarded, and the pellet was resuspended in the same volume of the appropriate binding buffer and centrifuged again. The supernatant was discarded, and the final pellet containing cell membranes was resuspended in the appropriate binding buffer and stored at −80° C. until use.
# (§3) Radioligand binding assays for the indicated transporters were performed as follows. To assess binding to the cloned hSERT, cells expressing hSERT were homogenized in 50 mM Tris-HCl with 120 mM NaCl and 5 mM KCl (pH 7.4). The binding reaction consisted of 10 μg cell membrane protein, 1.0 nM [^3H]citalopram (citalopram, [N-methyl-^3H], specific activity 79.0 Ci/mmol; PerkinElmer, Boston, Mass.), and varying concentrations of either unlabeled citalopram or the test compound. A reaction to determine non-specific binding consisted of 10 μg cell membrane protein, 0.5 nM [^3H]citalopram, and 1 μM final concentration of unlabeled citalopram. The reactions were incubated at 22° C. for 60 minutes. Following incubation, the reactions were terminated by rapid filtration through separate GF/B filter strips pretreated with 0.2% polyethylenimine in a 48-well Brandel cell harvester. The cell membrane-containing filter strips were then rinsed five times with ice-cold 0.9% NaCl. After rinsing, individual filters were cut from the strip and placed in a scintillation vial containing 6.5 mL of Redi-Safe (Beckman-Coulter, Fullerton, Calif.). Radioactivity was measured with a Beckman liquid scintillation counter (LS 6000TA).
# (§4) Following the radioligand binding assays, the data were analyzed using the
# (§5) The program was modified to calculate the Hill coefficient (nH). Data are presented as geometric mean±S.E.M. of at least three independent experiments. One-component models and two-component models were compared using the root mean square error of each fit and the F test.
# [2] = test system: hSERT (S), hNET (N), hDAT (D); assay: Comparison of binding potency across the three human transporters; conditions: for Potency (rank order of transporter binding): S = hSERT, N = hNET, D = hDAT, order by KD; for Potency Range: highest KD / lowest KD among hSERT, hNET, hDAT
# Experimental: as §1, §2, §3
# (§6) To assess binding to the cloned hNET, cells expressing hNET were homogenized in 50 mM Tris-HCl with 300 mM NaCl and 5 mM KCl (pH 7.4). The binding reaction consisted of 5 μg cell membrane protein, 0.5 nM [^3H]nisoxetine (nisoxetine HCl, [N-methyl-^3H], specific activity 82.0 Ci/mmol; Amersham, Arlington Hts., Ill.), and varying concentrations of either unlabeled nisoxetine or the test compound. A reaction to determine non-specific binding consisted of 5 μg cell membrane protein, 0.5 nM [^3H]nisoxetine, and 1 μM final concentration of unlabeled nisoxetine. The reactions were incubated at 22° C. for 60 minutes. Following incubation, the reactions were terminated by rapid filtration through separate GF/B filter strips pretreated with 0.2% polyethylenimine in a 48-well Brandel cell harvester. The cell membrane-containing filter strips were then rinsed five times with ice-cold 0.9% NaCl.
# [3] = molecular target: T2, human norepinephrine transporter (hNET) (Homo sapiens, UniProt P23975); assay: Human transporter radioligand binding, hNET ([3H]nisoxetine, HEK-293 membranes); conditions: HCl salts of test compounds; n ≥ 3, values marked b n = 1; read-out: Equilibrium Dissociation Constant (KD) for Transporter Binding (Geometric Mean; nM ± SEM) hNET (N)
# T2 construct: expressed in transfected cells; host or cells: HEK-293, stably transfected; membranes
# T2 sequence (P23975 whole entry): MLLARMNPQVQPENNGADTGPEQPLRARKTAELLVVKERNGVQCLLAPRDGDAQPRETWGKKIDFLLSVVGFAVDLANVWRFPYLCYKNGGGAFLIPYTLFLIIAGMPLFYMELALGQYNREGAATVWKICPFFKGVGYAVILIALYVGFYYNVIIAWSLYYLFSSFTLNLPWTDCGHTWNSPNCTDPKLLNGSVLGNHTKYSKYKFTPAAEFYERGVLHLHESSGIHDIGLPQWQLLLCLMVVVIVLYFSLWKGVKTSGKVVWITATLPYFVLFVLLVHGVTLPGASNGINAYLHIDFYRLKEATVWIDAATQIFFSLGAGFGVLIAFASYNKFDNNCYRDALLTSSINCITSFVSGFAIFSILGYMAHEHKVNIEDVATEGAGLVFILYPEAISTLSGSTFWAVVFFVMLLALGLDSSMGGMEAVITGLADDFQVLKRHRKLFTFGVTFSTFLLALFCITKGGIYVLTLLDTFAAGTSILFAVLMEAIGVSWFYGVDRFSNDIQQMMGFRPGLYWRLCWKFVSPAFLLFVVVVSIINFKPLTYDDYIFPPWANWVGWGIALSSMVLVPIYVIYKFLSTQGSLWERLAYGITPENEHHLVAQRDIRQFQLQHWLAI
# Experimental: as §1, §2
# as §6, with “NaCl. After rinsing, individual filters were cut from the strip and placed in a scintillation vial containing 6.5 mL of Redi-Safe (Beckman-Coulter, Fullerton, Calif.). Radioactivity was measured with a Beckman liquid scintillation counter (LS 6000TA).” for “NaCl.”
# as §4, §5
# [4] = molecular target: T3, human dopamine transporter (hDAT) (Homo sapiens, UniProt Q01959); assay: Human transporter radioligand binding, hDAT ([3H]WIN35428, HEK-293 membranes); conditions: HCl salts of test compounds; n ≥ 3, values marked b n = 1; read-out: Equilibrium Dissociation Constant (KD) for Transporter Binding (Geometric Mean; nM ± SEM) hDAT (D)
# T3 construct: expressed in transfected cells; host or cells: HEK-293, stably transfected; membranes
# T3 sequence (Q01959 whole entry): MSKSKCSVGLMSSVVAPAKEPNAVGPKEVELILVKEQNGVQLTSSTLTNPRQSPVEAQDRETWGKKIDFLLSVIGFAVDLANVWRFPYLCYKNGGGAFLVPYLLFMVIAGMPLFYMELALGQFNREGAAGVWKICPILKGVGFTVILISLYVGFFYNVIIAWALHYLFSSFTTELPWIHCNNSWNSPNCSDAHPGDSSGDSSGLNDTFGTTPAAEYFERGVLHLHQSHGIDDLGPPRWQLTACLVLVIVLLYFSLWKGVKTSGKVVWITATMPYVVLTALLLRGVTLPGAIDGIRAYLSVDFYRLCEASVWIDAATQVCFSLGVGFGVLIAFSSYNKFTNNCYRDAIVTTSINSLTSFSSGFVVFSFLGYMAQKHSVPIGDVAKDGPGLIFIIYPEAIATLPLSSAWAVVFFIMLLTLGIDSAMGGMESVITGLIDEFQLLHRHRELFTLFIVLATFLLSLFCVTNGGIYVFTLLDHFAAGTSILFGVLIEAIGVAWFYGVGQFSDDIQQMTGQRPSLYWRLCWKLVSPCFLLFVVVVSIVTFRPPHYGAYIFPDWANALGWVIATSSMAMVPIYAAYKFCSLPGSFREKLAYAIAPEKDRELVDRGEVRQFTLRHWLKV
# Experimental: as §1, §2
# To assess binding to the cloned hDAT, cells expressing hDAT were homogenized in 50 mM Tris-HCl with 120 mM NaCl (pH 7.4). The binding reaction contained 15 μg cell membrane protein, 1 nM [^3H]WIN35428 (WIN35428, [N-methyl-^3H], specific activity 85.9 Ci/mmol; PerkinElmer, Boston, Mass.), and varying concentrations of either unlabeled WIN35428 or the test compound. A reaction to determine non-specific binding contained 15 μg cell membrane protein, 1 nM [^3H]WIN35428, and 10 μM final concentration of unlabeled WIN35428. The reactions were incubated at 22° C. for 1 hour. Following incubation, the reactions were terminated by rapid filtration through separate GF/B filter strips pretreated with 0.2% polyethylenimine in a 48-well Brandel cell harvester. The cell membrane-containing filter strips were then rinsed five times with ice-cold 0.9% NaCl. After rinsing, individual filters were cut from the strip and placed in a scintillation vial containing 6.5 mL of Redi-Safe (Beckman-Coulter, Fullerton, Calif.). Radioactivity was measured with a Beckman liquid scintillation counter (LS 6000TA).
# as §4, §5
Compound,Kd [1] [nM],Potency (rank order of transporter binding) [2],Potency Range [2],Kd [3] [nM],Kd [4] [nM]
"CNCC(c1ccccc1)C(O)c1ccc(Br)cc1 [MCJ001-Br—Ph—OH-RS/SR, (1R,2S/1S,2R)-1-(4-bromophenyl)-3-(methylamino)-2-phenylpropan-1-ol]",3320,D > S > N,3,4500,1520
"CN(C)C[C@H](c1ccc2ccccc2c1)[C@@H](Cl)c1ccccc1 [MCJ002-Cl-RS, (2S,3R)-3-chloro-N,N-dimethyl-2-(naphthalen-2-yl)-3-phenylpropan-1-amine]",7.4 ± 0.9,S > N > D,53,90 ± 10,390 ± 30
"CN1Cc2c(N)cccc2C(c2ccccc2)C1 (stereo not shown) [Nomifensine, reference compound]",,N > D > S,,,
"CNC[C@@H](c1ccccc1)[C@@H](O)c1ccc2ccccc2c1 [MCJ001-NA-Ph—OH-SS/RR, (1S,1R/2S,2R)-3-(methylamino)-1-(naphthalen-2-yl)-2-phenylpropan-1-ol]",16 ± 2,S > > N > D,370,1390,5800 ± 400
"CNCC(c1ccccc1)C(O)c1ccc(Br)cc1 [MCJ001-Br—Ph—OH-SS/RR, (1S,2S/1R,2R)-1-(4-bromophenyl)-3-(methylamino)-2-phenylpropan-1-ol]",7300,,,,28400
"CNC[C@H](c1ccccc1)[C@@H](O)c1ccc(F)cc1 [MCJ001-F—Ph—OH-RS/SR, (1R,2S)-1-(4-fluorophenyl)-3-(methylamino)-2-phenylpropan-1-ol]",11900,N > S > D,28,2660,75200
"CNC[C@H](c1ccc2ccccc2c1)[C@@H](O)c1ccc(F)cc1 [MCJ001-4F—Ph—OH-RS/SR, (1R,2S)-1-(4-fluorophenyl)-3-(methylamino)-2-(naphthalen-2-yl)propan-1-ol]",27 ± 4,S > N > D,9,49 ± 4,250 ± 40
"CNC[C@H](c1ccc2ccccc2c1)[C@H](O)c1ccccc1 [PRC200-SS, (1S,2S)-3-(methylamino)-2-(naphthalen-2-yl)-1-phenylpropan-1-ol]",3.8 ± 0.3,N > S > D,45,0.6 ± 0.2,27 ± 3
"CNC[C@H](c1ccccc1)[C@@H](O)c1ccc2ccccc2c1 [MCJ001-NA-Ph—OH-RS/SR, (1R,2S/1S,2R)-3-(methylamino)-1-(naphthalen-2-yl)-2-phenylpropan-1-ol]",75 ± 2,S > N > D,120,7620,8900 ± 20
"CN(C)CCCN1c2ccccc2CCc2ccccc21 [Imipramine, reference compound]",,S > N > D,,,
"CN(C)C[C@H](c1ccc2ccccc2c1)[C@@H](F)c1ccccc1 [MCJ002-F-RS, (2S,3R)-3-fluoro-N,N-dimethyl-2-(naphthalen-2-yl)-3-phenylpropan-1-amine]",7 ± 0.5,S > N > D,40,45 ± 3,280 ± 20
"CN(C)C[C@H](c1ccc2ccccc2c1)[C@H](Cl)c1ccccc1 [MCJ002-Cl-SS, (2S,3S)-3-chloro-N,N-dimethyl-2-(naphthalen-2-yl)-3-phenylpropan-1-amine]",8.3 ± 0.9,S > N > D,32,50 ± 8,270 ± 30
"CCOc1ccccc1OC(c1ccccc1)C1CNCCO1 (stereo not shown) [Reboxetine, reference compound]",,N > S > D,,,
"CNC[C@H](c1ccc2ccccc2c1)[C@@H](OCCCCCCCO[C@@H](c1ccccc1)[C@H](CNC)c1ccc2ccccc2c1)c1ccccc1 [MCJ001-Dimer7-SS, (2S,2′S,3R,3′R)-3,3′-(heptane-1,7-diylbis(oxy))bis(N-methyl-2-(naphthalen-2-yl)-3-phenylpropan-1-amine)]",50 ± 3,N > S > D,6,29 ± 1,180 ± 20
"CNC[C@H](c1ccc2ccccc2c1)[C@H](O)c1ccc(F)cc1 [MCJ001-4F—Ph—OH-SS/RR, (1S,2S)-1-(4-fluorophenyl)-3-(methylamino)-2-(naphthalen-2-yl)propan-1-ol]",33 ± 5,N > S > D,8,11 ± 1,90 ± 10
"CNC[C@H](c1ccccc1)[C@H](O)c1ccc(F)cc1 [MCJ001-F—Ph—OH-SS/RR, (1S,2S)-1-(4-fluorophenyl)-3-(methylamino)-2-phenylpropan-1-ol]",1260,D > N > S,12,514,107
"CCN(CC)C(=O)C1(c2ccccc2)CC1CN (stereo not shown) [Milnacipran, reference compound]",,S > N > D,,,
"CNCC[C@H](Oc1cccc2ccccc12)c1cccs1 [Duloxetine, reference compound]",,S > N > D,,,
